# Assays:
# [1] = system: virus; experiment: Antiviral activity: cytopathic effect (CPE) inhibition in virus-inoculated Vero cells; assay type: cell-based; settings: MIC, virus at 100 times TCID50, cultured 36 hours at 37°C, CPE observed microscopically
# Description: By partly modifying the testing method reported in Antimicrobial Agents and Chemotherapy, 24(3), 353-361 (1983), antiviral activity was analyzed in the following manner. 200 µℓ of Eagle's minimum essential medium (with 10% fetal calf serum), in which Vero cells (product of Flow General Inc., marketed by Dainippon Pharmaceutical Co., Ltd., available from National Institute of Health) were suspended at the concentration of 3 x 10⁵ cells/mℓ, were cultured in a […] flat bottom plate. Subsequent to dense monolayer culture, the medium was removed and 90 µℓ of Eagle's minimum essential medium (with 3% fetal calf serum) containing a test compound were added. The tissue culture infections dosis 50% (TCID₅₀) had been determined in advance without addition of any drug. The above-prepared culture plate was inoculated with 10 µℓ of a virus solution whose concentration was 100 times higher than TCID₅₀ determined in advance. The cells were cultured for 36 hours at 37°C under 5% CO₂. The cytopathic effect (CPE) was microscopically observed, whereby the minimum virus growth inhibitory concentration (MIC) was determined.
# [2] = system: Vero cells; experiment: Measurement of cytotoxicity by the MTT method; assay type: cell-based; settings: cultured 72 hours, ID50 (growth of cells inhibited to 50%)
# Description: Added to 100 µℓ of Eagle's minimum essential medium were 100 µℓ of Eagle's minimum essential medium (with 10% fetal calf serum), in which Vero cells were suspended at the concentration of 5 x 10⁴ cells/mℓ as well as a test compound. The resultant mixture was cultured for 72 hours in a […] flat bottom plate. The cytotoxicity of the test compound was then measured by the MTT measuring method reported in J. Immunol. Methods, 65, 55-63 (1983). The cytotoxicity is indicated in terms of the concentration (ID₅₀) which inhibited the growth of cells to 50%.
SMILES,Minimum virus growth inhibitory concen. [1],50% cell growth inhibitory concentration (ID50) [2]
Nc1ncnc2c1ncn2[C@@H]1C=C(CO)[C@@H](O)[C@H]1O [Neplanocin A],0.24 µg/mL,
"CC(O)C1=C[C@@H](n2cnc3c(N)nccc32)[C@H](O)[C@@H]1O (single isomer, unassigned) [6'-c-Methyl-3-deazaneplanocin A, 6'-C-Methyl-3-deazaneplanocin A]",1.0 µg/mL,12.4 µg/mL
"Nc1nccc2c1ncn2[C@@H]1C=C(CO)[C@@H](O)[C@H]1O [3-Deazaneplanosin A, 3-deazaneplanocin A]",0.24 µg/mL,

# Source: patent EP0510260A2, “6'-C-alkyl-3-deazaneplanocin A derivative and its preparation process and use” (ASAHI KASEI KOGYO KABUSHIKI KAISHA, priority 1991, dated 1992)
